Where two headings read alike, the source gives them in different places.
Tests used:
[1] = test system: IL-6 promoter (p1168hu.IL6P-luc+); assay type: cell-based, mouse; details: added 2 h before 2000 IU/ml TNF, total 8 h
[2] = test system: AP-1 (p1168(κBmut)IL6P-luc+); assay type: cell-based, mouse; details: 60 nM STS
[3] = test system: NF-κB (p1168(AP-1mut)IL6P-luc+); assay type: cell-based, mouse; details: 2000 IU/ml TNF
[4] = test system: NF-κB (p(IL6κB)350hu.IL6P-luc+); assay type: cell-based, mouse; details: 0.1, 1 or 10 μM CpdA compared with 1 μM DEX, 2000 IU/ml TNF
[5] = test system: E-selectin promoter (pE-selectin-Luc); assay type: cell-based, mouse; details: 2000 IU/ml TNF
[6] = test system: GRE-driven promoter (p(GRE)2-50-luc+); assay type: cell-based, mouse
[7] = test system: endogenous murine IL-6 production; experiment: Murine IL-6 ELISA on supernatant of TNF-induced L929sA cells; assay type: cell-based, mouse; details: 1 μM and 10 μM, 2000 IU/ml TNF, 8 h
[8] = test system: NF-κB reporter p(IL6-κB)350hu.IL6P-luc+, GR dependence; assay type: cell-based, human; details: mock DNA versus pSVhGRα, 2000 IU/ml TNF
pNF-κB-Luc = experiment: TNF-activated pNF-κB-Luc (E1B TATA) in HEK293T cells; assay type: cell-based, human; details: 2000 IU/ml TNF
[9] = test system: NF-κB DNA-binding activity (IL-6 NF-κB response element); experiment: EMSA of NF-κB DNA-binding activity in L929sA cells; assay type: cell-based, mouse; details: all concentrations indicated, added 2 h before TNF (2000 IU/ml), total 4 h
[10] = test system: Gal4-p65 chimeric protein; experiment: Gal4-p65 transactivation of p(Gal)2-50hu.IL6P-luc+ in L929sA cells; assay type: cell-based, mouse
JNK p46 and p54 = experiment: MAPK activation assay (phospho-specific Western blot), JNK, L929sA cells; assay type: cell-based, mouse; details: 2000 IU/ml TNF 15 minutes
[11] = Stability of the compound on storage and in solution; assay type: physicochemical; details: solid, storage
Source text: The invention further relates to compositions, preferably pharmaceutical compositions, comprising as an active ingredient at least one of the compounds as defined in formula (I) together with (pharmaceutically) acceptable excipients. […] The preferred compound exerting this activity is 2(4-acetoxyphenyl)-2-chloro-N-methyl-ethylammonium chloride and has a molecular weight of 264.14.

[12] = kept in solution (especially at pH5 and above); cited from earlier work
oestrus cycle = details: rats; cited from earlier work
[13] = test system: NF-κB DNA-binding activity (IL-6 NF-κB response element); details: L929sA cells, previously demonstrated; cited from earlier work

Structure (SMILES): CNCC(Cl)c1ccc(OC(C)=O)cc1.Cl (stereo not shown) [CpdA, 2-(4-acetoxyphenyl)-2-chloro-N-methyl-ethylammonium chloride]
- inhibition of TNF induction of p1168hu.IL6P-luc+ (relative luciferase induction factor) ([1]; 0.1 μM): downmodulatory effect
- inhibition of TNF induction of p1168hu.IL6P-luc+ (relative luciferase induction factor) ([1]; 1 μM): lowers the relative luciferase induction factor to almost the same extent as 1 μM DEX
- inhibition of STS-induced AP-1-mediated transactivation ([2]; 0.1, 1 and 10 μM): capable of inhibiting the STS-induced transactivation
- inhibition of TNF-induced NF-κB-mediated transactivation of p1168(AP-1mut)IL6P-luc+ ([3]; 1 μM and 10 μM): capable of significantly inhibiting the TNF-induced promoter activity
- inhibition of TNF-activated p(IL6κB)350hu.IL6Pluc+ [4]: inhibits, to a similar extent as DEX
- inhibition of TNF-induced pE-selectin-luc+ ([5]; 1 μM): also effective, though to a lesser extent
- inhibition of TNF-induced pE-selectin-luc+ ([5]; 10 μM): inhibits the TNF-activated reporter to the same extent as 1 μM DEX, i.e. to background levels
- transactivation of p(GRE)2-50-luc+ ([6]; 0.1 and 10 μM, 8 h): lack of activity
- effect on DEX-induced p(GRE)2-50-luc+ transactivation ([6]; CpdA together with 1 μM DEX): competition for GR molecules present in the cell
- lowering of TNF-induced IL-6 protein levels [7]: able to efficiently lower these TNF-induced levels
- repression of TNF-activated p(IL6-κB)350hu.IL6P-luc+ ([8]; 10 μM): only when GR is present
- repression of TNF-activated pNF-κB-Luc (pNF-κB-Luc; 10 μM): not able to mediate repression of pNF-κB-Luc
- effect on NF-κB DNA-binding activity [9]: no change of NF-κB DNA-binding activity is observed
- inhibition of the activity of Gal4p65 ([10]; 10 μM): able to halfmaximally inhibit the activity of Gal4p65
- effect on amount of phosphorylated (activated) JNK (JNK p46 and p54; 1 or 10 μM for 2 h): does not affect the amount of activated JNK p46 and p54
- hygroscopicity and light sensitivity [11]: hygroscopic and sensitive to light
- stability in solution [12]: starts to cyclise to the corresponding aziridine
- effect on oestrus cycle (oestrus cycle): disrupts the oestrus cycle of rats

Structure (SMILES): C[C@@H]1C[C@H]2[C@@H]3CCC4=CC(=O)C=C[C@]4(C)[C@@]3(F)[C@@H](O)C[C@]2(C)[C@@]1(O)C(=O)CO [DEX, Dexamethasone, reference compound]
- inhibition of TNF induction of p1168hu.IL6P-luc+ (relative luciferase induction factor) ([1]; 1 μM): efficiently be inhibited
- inhibition of STS-induced AP-1-mediated transactivation ([2]; 1 μM): efficiently inhibits the AP-1-mediated transactivation
- inhibition of TNF-induced NF-κB-mediated transactivation of p1168(AP-1mut)IL6P-luc+ ([3]; 1 μM): efficiently inhibit this NF-κB-mediated transactivation
- inhibition of TNF-induced pE-selectin-luc+ ([5]; 1 μM): to background levels
- transactivation of p(GRE)2-50-luc+ (induction factor) ([6]; 1 μM, 8 h): at least 8 fold
- repression of TNF-activated p(IL6-κB)350hu.IL6P-luc+ ([8]; 1 μM): only when GR is present
- repression of TNF-activated pNF-κB-Luc (pNF-κB-Luc; 1 μM): not able to mediate repression of pNF-κB-Luc
- inhibition of the activity of Gal4p65 ([10]; 1 μM): able to halfmaximally inhibit the activity of Gal4p65
- effect on amount of phosphorylated (activated) JNK (JNK p46 and p54; 1 μM for 2 h): able to inhibit the amount of phosphorylated JNK
- effect on NF-κB DNA-binding capacities [13]: without affecting the DNA-binding capacities of NF-κB

Reference: patent US7053120B2, “Use of carboxy compounds such as 2(4-acetoxyphenyl)2-chloro-N-methyl-ethylammonium chloride as anti-inflammatory agents” (priority 1999, dated 2006)
